Experimental data taken from ChEMBL document CHEMBL1132061, “Studies towards the identification of potent, selective and bioavailable thrombin inhibitors” (Bioorg Med Chem Lett, 1999).

Test system: not listed separately
Assay: Bioavailability in rat after p.o. administration at a dose of 30 mg/kg
Type: ADME, organism-based
Settings: in vivo, po

Row | SMILES | bioavailability [%]
1 | CCC1CCN(C(=O)[C@H](Cc2ccc(N)cc2)NS(=O)(=O)c2cnccc2N[C@H](COCCO)Cc2ccccc2)CC1 (stereo in doubt; 62) [listing 1 of 2 here] | 55

Organism: Homo sapiens
Assay: Influence on the doubling of activated partial human thromboplastin time(APTT)
Type: functional
Settings: not given

Row | SMILES | Activity [µM]
2 | CN(C)C[C@H](Cc1ccccc1)Nc1ccncc1S(=O)(=O)N[C@@H](Cc1ccccc1)C(=O)N1CCC(CCF)CC1 (stereo in doubt; 64) [listing 1 of 2 here] | 9.6
3 | CCC1CCN(C(=O)[C@H](Cc2ccc(N)cc2)NS(=O)(=O)c2cnccc2N[C@H](COCCO)Cc2ccccc2)CC1 (stereo in doubt; 62) [listing 2 of 2 here] | 5
4 | Nc1ccc(C[C@H](NS(=O)(=O)c2cnccc2N[C@@H](Cc2ccccc2)CN2CCOCC2)C(=O)N2CCC(CCF)CC2)cc1 | 2.9
5 | O=C([C@H](Cc1ccc(O)cc1)NS(=O)(=O)c1cnccc1N[C@H](COCCO)Cc1ccccc1)N1CCC(CCCl)CC1 | 4.4

Biological target: Prothrombin (Homo sapiens, UniProt P00734)
Assay: In vitro inhibition of human thrombin.
Settings: not given

Row | SMILES | Ki [nM]
6 | O=C([C@H](Cc1ccccc1)NS(=O)(=O)c1cnccc1N[C@H](COCCO)Cc1ccccc1)N1CCC(CCF)CC1 | 220
7 | CCC1CCN(C(=O)[C@H](Cc2ccc(N)cc2)NS(=O)(=O)c2cnccc2N[C@H](COCCO)Cc2ccccc2)CC1 (stereo in doubt; 62) [listing 1 of 2 here] | 147
8 | O=C([C@H](Cc1ccccc1)NS(=O)(=O)c1cnccc1N[C@@H](Cc1ccccc1)CN1CCC(O)CC1)N1CCC(CCF)CC1 | 61
9 | CCC1CCN(C(=O)[C@H](Cc2ccc(N)cc2)NS(=O)(=O)c2cnccc2N[C@@H](Cc2ccccc2)CN2CCOCC2)CC1 | 62
10 | CN(C)C[C@H](Cc1ccccc1)Nc1ccncc1S(=O)(=O)N[C@@H](Cc1ccccc1)C(=O)N1CCC(CCF)CC1 (stereo in doubt; 64) [listing 2 of 2 here] | 130
11 | O=C([C@H](Cc1ccc(O)cc1)NS(=O)(=O)c1cnccc1N[C@H](COCCO)Cc1ccccc1)N1CCC(CCCl)CC1 | 28
12 | CCC1CCN(C(=O)[C@H](Cc2ccc(N)cc2)NS(=O)(=O)c2cnccc2N[C@H](COCCO)Cc2ccccc2)CC1 (stereo in doubt; 16) | 147
13 | COc1ccc(C[C@@H](CO)Nc2ccncc2S(=O)(=O)N[C@@H](Cc2ccccc2)C(=O)N2CCC(CCF)CC2)cc1 | 85
14 | CN(C)C[C@H](Cc1ccccc1)Nc1ccncc1S(=O)(=O)N[C@@H](Cc1ccccc1)C(=O)N1CCC(CCF)CC1 (stereo in doubt; 8) | 130
15 | CCC1CCN(C(=O)[C@H](Cc2ccc(N)cc2)NS(=O)(=O)c2cnccc2N[C@H](CO)Cc2ccc(OC)cc2)CC1 | 40
